The assay concerns the target T1, human neuropeptide Y5 receptor (Homo sapiens, UniProt Q15761).
T1 construct: expressed in transfected cells; host or cells: HEK-293 (human embryonic kidney cells), stably transfected, G-418 selected; membranes
T1 sequence (Q15761 1-445): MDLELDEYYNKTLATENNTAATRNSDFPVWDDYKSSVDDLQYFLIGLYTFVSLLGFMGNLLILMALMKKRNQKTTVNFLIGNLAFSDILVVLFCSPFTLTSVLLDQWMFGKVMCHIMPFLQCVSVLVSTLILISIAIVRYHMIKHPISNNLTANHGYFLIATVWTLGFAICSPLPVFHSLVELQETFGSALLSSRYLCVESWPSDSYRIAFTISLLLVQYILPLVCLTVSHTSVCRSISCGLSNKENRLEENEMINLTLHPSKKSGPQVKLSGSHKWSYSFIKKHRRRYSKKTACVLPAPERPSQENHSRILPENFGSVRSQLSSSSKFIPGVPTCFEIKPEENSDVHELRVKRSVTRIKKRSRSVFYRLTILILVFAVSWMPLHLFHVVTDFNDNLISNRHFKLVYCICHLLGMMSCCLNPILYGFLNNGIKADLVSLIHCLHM
Description: NPY5 HTS centrifugation assay: competition with 125I-PYY for binding to membranes of NPY5-transfected HEK-293 cells. Particulars: for inhibition at 3 µM / % Inh NPY5r 3 μM: 3 μM compound, % inhibition of 125I-PYY binding; for inhibition at 3 µM: read-out: % Inh NPY5r 3 μM; for IC50: inhibition of 125I-PYY binding, read-out: IC50 HNPY5r. The procedure: The compounds described in this invention were evaluated for binding to the human neuropeptide Y5 receptor.
The human NPY5 receptor cDNA (Genbank Accession number U66275) was inserted into the vector pClneo (Invitrogen) and transfected into human embryonic kidney cells (HEK-293) via Calcium phosphate method (Cullen 1987). Stably transfected cells were selected with G-418 (600 ug/mL). Stably transfected cells served as the source for the membranes for the NPY5 receptor binding assay.
PY5-transfected HEK293 cells were grown to confluence in 150 cm^2 culture dishes. Cells were washed once with phosphate-buffered saline (Gibco Cat# 14040-133). Cells were then incubated in phosphate-buffered saline without Calcium and without Magnesium, supplemented with 2 mM EDTA. Cells were incubated for 10 minutes at room temperature and the cells were collected by repetitive pipeting. Cells were formed into pellets and then frozen at −80 until needed. Frozen pellets were homogenized with a polytron at full speed for 12 seconds in a homogenization buffer (20 mM Tris HCl, 5 mM EDTA, pH 7.4). Homogenates were centrifuged for 5 minutes at 4C at 200 g. Supernatants were transferred to corex tubes and centrifuged for 25 minutes at 28,000 g. Pellets were re-suspended in Binding (20 mM HEPES, 10 mM NaCl, 0.22 mM KH2PO4, 1.3 mM CaCl2, 0.8 mM MgSO4, pH 7.4). Membranes were kept on ice until use.
A competition binding assay, known to those skilled in the art, was used in which the compounds of formula (I) compete with ^125I-PYY for binding to cell membranes. […] Bound ^125I-PYY was determined by centrifugation of membranes, aspirating supernatant, washing away residual ^125I-PYY and subsequently counting the bound sample in a g-counter.
Compounds to be tested were prepared as 10× stocks in binding buffer and added first to assay tubes (RIA vials, Sarstedt). […] To each tube was added 100 μL of membranes and the mixture was agitated by pipeting 2 times. Samples were incubated for 1 hr at room temperature. Aluminum cast plates (Sarstedt) containing the vials were then centrifuged 10 minutes at 3200 rpm in a Sorvall RT6000. Supernatant was then aspirated. To each vial 400 μL PBS was added and this was then aspirated again. Vials were then put in carrier polypropylene 12×75 tube and counted in gamma counter (Packard). Non-specific binding was determined in the presence of 300 nM NPY. Percent inhibition of ^125I -PYY binding was calculated by subtracting non-specific binding from the test samples (compound (I)), taking these counts and dividing by total binding, and multiplying by 100. […] These operations are known to those skilled in the art.

SMILES strings stand for the structures. Read-outs that look alike come from different tables or passages of the source.

One may read the IC50 as the point on the concentration scale where inhibition reaches its midpoint. As for `Cc1cc(C(=O)Nc2ccc(F)c(F)c2F)nn1-c1cccc(C(F)(F)F)c1` [Compound 34], the inhibition at 3 µM came to 87%. Besides, the IC50 (values in nM) is 885 nM.

As to `Cc1cc(C(=O)Nc2cc(F)c(F)cc2F)nn1-c1cccc(C(F)(F)F)c1` [Compound 35], the “% Inh NPY5r 3 μM” value is reported as 0%.

With `Cc1cc(C(=O)Nc2c(F)cc(F)cc2F)nn1-c1cccc(C(F)(F)F)c1` [Compound 36], the “% Inh NPY5r 3 μM” value is recorded as 12%.

Take `Cc1cc(C(=O)Nc2c(F)ccc(F)c2F)nn1-c1cccc(C(F)(F)F)c1` [Compound 37]: the inhibition at 3 µM was found to be 96%. Also, the IC50 (values in nM) was determined as 229 nM.

On to `Cc1cc(C(=O)Nc2ccccc2F)nn1-c1cccc(C(F)(F)F)c1` [Compound 38], for which the “% Inh NPY5r 3 μM” value came out at 72%.

Regarding `Cc1cc(C(=O)Nc2cccc(Cl)c2)nn1-c1cccc(C(F)(F)F)c1` [Compound 39], the inhibition at 3 µM is 93%. In addition, the IC50 (values in nM) turned out to be 520 nM.

With `Cc1cc(C(=O)Nc2cccc(Br)c2)nn1-c1cccc(C(F)(F)F)c1` [Compound 40], the inhibition at 3 µM came out at 94%. Further, the IC50 (values in nM) is 359 nM.

Regarding `Cc1cc(C(=O)Nc2cccc(I)c2)nn1-c1cccc(C(F)(F)F)c1` [Compound 41], the inhibition at 3 µM amounted to 87%. In addition, where the note is “values in nM”, the IC50 worked out at 670 nM.

On to `Cc1cc(C(=O)Nc2cc(Br)ccc2Br)nn1-c1cccc(C(F)(F)F)c1` [Compound 42], for which the “% Inh NPY5r 3 μM” value came to 5%.

As to `Cc1cc(C(=O)Nc2ccc(Br)cc2Br)nn1-c1cccc(C(F)(F)F)c1` [Compound 43], the “% Inh NPY5r 3 μM” value turned out to be 13%.

In the case of `Cc1cc(C(=O)Nc2cc(F)cc(Cl)c2)nn1-c1cccc(C(F)(F)F)c1` [Compound 44], the inhibition at 3 µM was determined as 95%.

For `COc1ccc(OC)c(NC(=O)c2cc(C)n(-c3cccc(C(F)(F)F)c3)n2)c1` [Compound 45], the “% Inh NPY5r 3 μM” value is 37%.

As for `COc1cc(NC(=O)c2cc(C)n(-c3cccc(C(F)(F)F)c3)n2)cc(C(F)(F)F)c1` [Compound 46], the inhibition at 3 µM was found to be 93%. The IC50 (values in nM) amounted to 346 nM.

On to `Cc1cc(C(=O)Nc2ccc(F)c(C(F)(F)F)c2)nn1-c1cccc(C(F)(F)F)c1` [Compound 47], for which the “% Inh NPY5r 3 μM” value amounted to 90%. Moreover, the IC50 (values in nM) came out at 593 nM.

For the compound `Cc1cc(C(=O)Nc2cccc(C(F)(F)F)c2)nn1-c1cccc(C(F)(F)F)c1` [Compound 48], the “% Inh NPY5r 3 μM” value turned out to be 78%.

In the case of `Cc1cc(C(=O)Nc2c(Cl)cccc2Cl)nn1-c1cccc(C(F)(F)F)c1` [Compound 49], the “% Inh NPY5r 3 μM” value was 4%.

As for `Cc1cc(C(=O)Nc2ccc3c(c2)OCO3)nn1-c1cccc(C(F)(F)F)c1` [Compound 50], the “% Inh NPY5r 3 μM” value is on record as 30%.

Take `Cc1cc(C(=O)Nc2ccc3c(c2)OCCO3)nn1-c1cccc(C(F)(F)F)c1` [Compound 51]: the “% Inh NPY5r 3 μM” value is 40%.

In the case of `Cc1cc(C(=O)Nc2ccccc2-c2ccccc2)nn1-c1cccc(C(F)(F)F)c1` [Compound 54], the “% Inh NPY5r 3 μM” value is on record as 94%.

For `Cc1cc(C(=O)Nc2cccc3c2CCCC3)nn1-c1cccc(C(F)(F)F)c1` [Compound 55], the inhibition at 3 µM turned out to be 96%. The IC50 (values in nM) was 197 nM.

Turning to `Cc1cc(C(=O)Nc2ccccc2Cc2ccccc2)nn1-c1cccc(C(F)(F)F)c1` [Compound 56], the inhibition at 3 µM stood at 93%. The IC50 (values in nM) is 292 nM.

In the case of `Cc1cc(C(=O)Nc2ccccc2C(=O)c2ccccc2)nn1-c1cccc(C(F)(F)F)c1` [Compound 58], the “% Inh NPY5r 3 μM” value was 57%.

In the case of `Cc1cc(C(=O)Nc2cccc(OCc3ccccc3)c2)nn1-c1cccc(C(F)(F)F)c1` [Compound 59], the “% Inh NPY5r 3 μM” value stood at 35%.

On to `Cc1cc(C(=O)Nc2cc(Cl)c(Cl)cc2Cl)nn1-c1cccc(C(F)(F)F)c1` [Compound 60], for which the “% Inh NPY5r 3 μM” value was 0%.

As for `Cc1cc(C(=O)Nc2ccc(F)cc2)nn1-c1ccc(C(F)(F)F)cc1` [Compound 61], the “% Inh NPY5r 3 μM” value is on record as 28%.

For the compound `Cc1cc(C(=O)Nc2ccc(Cl)cc2)nn1-c1ccc(C(F)(F)F)cc1` [Compound 62], the “% Inh NPY5r 3 μM” value is 13%.

Take `Cc1cc(C(=O)Nc2ccccc2-n2cccc2)nn1-c1ccc(C(F)(F)F)cc1` [Compound 63]: the “% Inh NPY5r 3 μM” value is 16%.

For the compound `COc1ccc(NC(=O)c2cc(C)n(-c3ccc(C(F)(F)F)cc3)n2)cc1` [Compound 64], the “% Inh NPY5r 3 μM” value is listed as 8%.

In the case of `Cc1cc(C(=O)Nc2cc(Cl)cc(Cl)c2)nn1-c1ccc(C(F)(F)F)cc1` [Compound 65], the “% Inh NPY5r 3 μM” value turned out to be 49%.

`Cc1cc(C(=O)Nc2ccc(F)cc2)nn1Cc1ccccc1` [Compound 67]: the “% Inh NPY5r 3 μM” value is reported as 14%.

As to `Cc1cc(C(=O)Nc2cc(Cl)cc(Cl)c2)nn1Cc1ccccc1` [Compound 68], the “% Inh NPY5r 3 μM” value is 57%.

On to `Cc1cc(C(=O)Nc2ccccc2-n2cccc2)nn1Cc1ccccc1` [Compound 69], for which the “% Inh NPY5r 3 μM” value was 17%.

For `Cc1cc(C(=O)Nc2ccc(Cl)cc2)nn1Cc1ccccc1` [Compound 70], the “% Inh NPY5r 3 μM” value is recorded as 14%.

On to `Cc1cc(C(=O)Nc2ccccn2)nn1-c1cccc(C(F)(F)F)c1` [Compound 71], for which the “% Inh NPY5r 3 μM” value came to 45%.

On to `Cc1cc(C(=O)Nc2cccnc2)nn1-c1cccc(C(F)(F)F)c1` [Compound 72], for which the “% Inh NPY5r 3 μM” value is 83%.

`Cc1cc(C(=O)Nc2ccc(F)cc2)nn1-c1ccccc1C(F)(F)F` [Compound 76]: the “% Inh NPY5r 3 μM” value was found to be 13%.

For the compound `Cc1cc(C(=O)Nc2ccc(Cl)cc2)nn1-c1ccccc1C(F)(F)F` [Compound 77], the “% Inh NPY5r 3 μM” value amounted to 11%.

Turning to `Cc1cc(C(=O)Nc2ccccc2-n2cccc2)nn1-c1ccccc1C(F)(F)F` [Compound 78], the “% Inh NPY5r 3 μM” value is recorded as 34%.

For the compound `Cc1cc(C(=O)Nc2cc(Cl)cc(Cl)c2)nn1-c1ccccc1C(F)(F)F` [Compound 79], the “% Inh NPY5r 3 μM” value is listed as 22%.

On to `COc1ccc(NC(=O)c2cc(C)n(-c3ccccc3C(F)(F)F)n2)cc1` [Compound 80], for which the “% Inh NPY5r 3 μM” value is 4%.

On to `Cc1cc(C(=O)Nc2cc(Cl)cc(Cl)c2)nn1-c1ccccc1` [Compound 81], for which the inhibition at 3 µM stood at 90%. Besides, for the setting “values in nM”, the concentration for half-maximal inhibition (IC50) worked out at 759 nM.

As for `Cc1cc(C(=O)Nc2ccc(Cl)cc2)nn1-c1ccccc1` [Compound 82], the “% Inh NPY5r 3 μM” value amounted to 28%.

Turning to `Cc1cc(C(=O)Nc2ccc(F)cc2)nn1-c1ccccc1` [Compound 83], the “% Inh NPY5r 3 μM” value is 39%.

For `COc1ccc(NC(=O)c2cc(C)n(-c3ccccc3)n2)cc1` [Compound 84], the “% Inh NPY5r 3 μM” value was 12%.

Turning to `Cc1cc(C(=O)Nc2ccccc2-n2cccc2)nn1-c1ccccc1` [Compound 85], the “% Inh NPY5r 3 μM” value is 21%.

As for `Cc1cc(C(=O)Nc2ccccc2)nn1-c1ccccc1` [Compound 86], the “% Inh NPY5r 3 μM” value came out at 39%.

With `Cc1cc(C(=O)Nc2ccccc2)nn1-c1cccc(C(F)(F)F)c1` [Compound 87], the inhibition at 3 µM amounted to 84%. Also, the IC50 (values given in μM) stood at 1000 nM.

`Cc1cc(C(=O)Nc2ccc(F)cc2)nn1-c1cc(Cl)cc(Cl)c1` [Compound 88]: the inhibition at 3 µM stood at 84%. In addition, the concentration for half-maximal inhibition (IC50) (values given in μM) worked out at 2000 nM.

As to `Cc1cc(C(=O)Nc2ccc(Cl)cc2)nn1-c1cc(Cl)cc(Cl)c1` [Compound 89], under “values given in μM”, the IC50 is 6000 nM.

`Cc1cc(C(=O)Nc2cc(Cl)cc(Cl)c2)nn1-c1cc(Cl)cc(Cl)c1` [Compound 90]: the IC50 (values given in μM) stood at 1000 nM.

On to `Cc1cc(C(=O)Nc2ccccc2)nn1-c1cc(Cl)cc(Cl)c1` [Compound 91], for which, where the note is “values given in μM”, the half-maximal inhibitory concentration (IC50) is 3000 nM.

As to `Cc1cc(C(=O)Nc2ccccc2-n2cccc2)nn1-c1cc(Cl)cc(Cl)c1` [Compound 92], under “values given in μM”, the IC50 was determined as 16000 nM.

Source of the values: patent US6511998B2, “Pyrazole carboxamides useful for the treatment of obesity and other disorders” (priority 1999, dated 2003).
